Some results are limits rather than exact numbers.

The test system of this test is bicistronic HCV replicon (replicon RNA, GenBank Accession No. AJ242654). Description: HCV Replicon Assay. Format: cell-based. To be noted: Hepatitis C virus, 72 h, read-out: Replicon IC50. On the technique in general: In antiviral work, replicon cells carry a viral genome segment that copies itself.
In general, IC50 refers to the concentration that inhibits the measured activity by half. For `[2H]C([2H])([2H])c1cc2c(cc1F)c(C#N)c(-c1ccc(S(=O)(=O)N[C@@]([2H])(C)C(F)(F)F)cn1)n2-c1ncccn1` [compound 1107, 6-[3-cyano-5-fluoro-6-(1,1,1-trideuterium)methyl-1-(pyrimidin-2-yl)-1H-indol-2-yl]-N-[(2S)-1,1,1-trifluoro(2-deuterium)propan-2-yl]pyridine-3-sulfonamide], the 50% inhibitory concentration (IC50) was under 500 nM.

Regarding `Cc1cc2c(cc1F)c(C#N)c(-c1cc(C)c(S(=O)(=O)N[C@@H](C)C(F)(F)F)cn1)n2-c1ccccn1` [compound 854, 6-[3-cyano-5-fluoro-6-methyl-1-(pyridin-2-yl)-1H-indol-2-yl]-4-methyl-N-[(2S)-1,1,1-trifluoropropan-2-yl]pyridine-3-sulfonamide], the half-maximal inhibitory concentration (IC50) is under 500 nM.

Regarding `C[C@H](NS(=O)(=O)c1ccc(-c2c(C#N)c3ccc(Cl)cc3n2C2CCCC2)nc1)C(F)(F)F` [compound 364, 6-(6-chloro-3-cyano-1-cyclopentyl-1H-indol-2-yl)-N-[(2S)-1,1,1-trifluoropropan-2-yl]pyridine-3-sulfonamide], the IC50 is under 500 nM.

With `Cc1cc2c(cc1F)c(C#N)c(-c1ccc(S(=O)(=O)N[C@@H](C)C(F)(F)F)cn1)n2-c1ncccc1F` [compound 814, 6-[3-cyano-5-fluoro-1-(3-fluoropyridin-2-yl)-6-methyl-1H-indol-2-yl]-N-[(2S)-1,1,1-trifluoropropan-2-yl]pyridine-3-sulfonamide], the IC50 was under 500 nM.

Regarding `CCc1cc2c(cc1F)c(C#N)c(-c1ccc(S(=O)(=O)N[C@@H](C)C(F)(F)F)cn1)n2-c1ccccn1` [compound 778, 6-[3-cyano-6-ethyl-5-fluoro-1-(pyridin-2-yl)-1H-indol-2-yl]-N-[(2S)-1,1,1-trifluoropropan-2-yl]pyridine-3-sulfonamide], the 50% inhibitory concentration (IC50) was under 500 nM.

As to `COC(=O)c1cnc(-n2c(-c3ccc(S(=O)(=O)N[C@@H](C)C(F)(F)F)cn3)c(C#N)c3cc(F)c(C)cc32)s1` [compound 985, methyl 2-[3-cyano-5-fluoro-6-methyl-2-(5-{[(2S)-1,1,1-trifluoropropan-2-yl]sulfamoyl}pyridin-2-yl)-1H-indol-1-yl]-1,3-thiazole-5-carboxylate], the 50% inhibitory concentration (IC50) was under 500 nM.

Turning to `Cc1cc2c(cc1F)c(C(N)=O)c(-c1ncc(S(=O)(=O)N[C@@H](C)C(F)(F)F)cn1)n2C1CCCCC1` [compound 707, 1-cyclohexyl-5-fluoro-6-methyl-2-(5-{[(2S)-1,1,1-trifluoropropan-2-yl]sulfamoyl}pyrimidin-2-yl)-1H-indole-3-carboxamide], the half-inhibitory concentration (IC50) was under 500 nM.

Turning to `C[C@H](NS(=O)(=O)c1ccc(-c2c(C#N)c3cc(F)ccc3n2C2CCCC2)nc1)C(F)(F)F` [compound 435, 6-(3-cyano-1-cyclopentyl-5-fluoro-1H-indol-2-yl)-N-[(2S)-1,1,1-trifluoropropan-2-yl]pyridine-3-sulfonamide], the IC50 is under 500 nM.

In the case of `N#Cc1c(-c2ncc(S(=O)(=O)NC(CF)CF)cn2)n(C2CCCC2)c2ccc(Cl)cc12` [compound 188, 2-(5-chloro-3-cyano-1-cyclopentyl-1H-indol-2-yl)-N-(1,3-difluoropropan-2-yl)pyrimidine-5-sulfonamide], the IC50 was under 500 nM.

As to `C=CCc1cc2c(cc1F)c(Cl)c(-c1ccc(S(=O)(=O)N[C@@H](C)C(F)(F)F)cn1)n2-c1ncccn1` [compound 968, 6-[3-chloro-5-fluoro-6-(prop-2-en-1-yl)-1-(pyrimidin-2-yl)-1H-indol-2-yl]-N-[(2S)-1,1,1-trifluoropropan-2-yl]pyridine-3-sulfonamide], the IC50 was 500 to 2000 nM.

`CCc1cc2c(cc1F)c(C(N)=O)c(-c1ccc(S(=O)(=O)NC(C)(C)C)cn1)n2-c1ccccn1` [compound 883, 2-(5-(N-tert-butylsulfamoyl)pyridin-2-yl)-6-ethyl-5-fluoro-1-(pyridin-2-yl)-1H-indole-3-carboxamide]: the IC50 was under 500 nM.

As to `Cc1ccc2c(c1)c(C#N)c(-c1ccc(S(=O)(=O)N[C@H](C)C(F)(F)F)cn1)n2C1CCCC1` [compound 486, 6-(3-cyano-1-cyclopentyl-5-methyl-1H-indol-2-yl)-N-[(2R)-1,1,1-trifluoropropan-2-yl]pyridine-3-sulfonamide], the IC50 is under 500 nM.

In the case of `CNC(=O)c1c(-c2ccc(S(=O)(=O)N[C@@H](C)C(F)(F)F)cn2)n(C2CCC2)c2cc(C)c(F)cc12` [compound 801, 1-cyclobutyl-5-fluoro-N,6-dimethyl-2-(5-{[(2S)-1,1,1-trifluoropropan-2-yl]sulfamoyl}pyridin-2-yl)-1H-indole-3-carboxamide], the IC50 was under 500 nM.

Regarding `CC(C)(C)NS(=O)(=O)c1ccc(-c2c(C#N)c3cc(F)c(OC(F)F)cc3n2C2CCC2)nc1` [compound 720, N-tert-butyl-6-[3-cyano-1-cyclobutyl-6-(difluoromethoxy)-5-fluoro-1H-indol-2-yl]pyridine-3-sulfonamide], the concentration for half-maximal inhibition (IC50) was under 500 nM.

Consider `C[C@H](NS(=O)(=O)c1ccc(-c2c(C#N)c3ccc(C4CC4)cc3n2C2CCCC2)nc1)C1CC1` [compound 433, 6-(3-cyano-1-cyclopentyl-6-cyclopropyl-1H-indol-2-yl)-N-[(1S)-1-cyclopropylethyl]pyridine-3-sulfonamide], for which the half-inhibitory concentration (IC50) is under 500 nM.

`Cc1cc2c(cc1F)c(C#N)c(-c1ccc(S(=O)(=O)N[C@H](C)C(F)(F)F)cn1)n2C1CCOCC1` [compound 749, 6-[3-cyano-5-fluoro-6-methyl-1-(tetrahydro-2H-pyran-4-yl)-1H-indol-2-yl]-N-[(2R)-1,1,1-trifluoropropan-2-yl]pyridine-3-sulfonamide]: the IC50 is under 500 nM.

As for `Cc1cc2c(cc1F)c(C#N)c(-c1ccc(S(=O)(=O)N[C@@H](C)C(F)(F)F)cn1)n2-c1ncc(F)cn1` [compound 924, 6-[3-cyano-5-fluoro-1-(5-fluoropyrimidin-2-yl)-6-methyl-1H-indol-2-yl]-N-[(2S)-1,1,1-trifluoropropan-2-yl]pyridine-3-sulfonamide], the IC50 was under 500 nM.

For `Cc1cc2c(cc1F)c(C(N)=O)c(-c1ccc(S(=O)(=O)NC(C)(C)C)cn1)n2C1CCCC1` [compound 683, 2-[5-(tert-butylsulfamoyl)pyridin-2-yl]-1-cyclopentyl-5-fluoro-6-methyl-1H-indole-3-carboxamide], the IC50 is under 500 nM.

For `CCc1cc2c(cc1F)c(C#N)c(-c1ccc(S(=O)(=O)N[C@@H](C)C(F)(F)F)cn1)n2C1CC1` [compound 910, 6-(3-cyano-1-cyclopropyl-6-ethyl-5-fluoro-1H-indol-2-yl)-N-[(2S)-1,1,1-trifluoropropan-2-yl]pyridine-3-sulfonamide], the IC50 was under 500 nM.

In the case of `Cc1nc(NS(=O)(=O)C(C)(C)C)ccc1-c1c(C(=O)O)c2cc(F)c(OC(F)F)cc2n1[C@H](C)C1CC1` [compound 1094, 2-{6-[(tert-butylsulfonyl)amino]-2-methylpyridin-3-yl}-1-[(1R)-1-cyclopropylethyl]-6-(difluoromethoxy)-5-fluoro-1H-indole-3-carboxylic acid], the IC50 is under 500 nM.

Regarding `Cc1ccc2c(C#N)c(-c3ccc(S(=O)(=O)NC(CF)CF)cn3)n(C3CCC3)c2c1` [compound 82, 6-(3-cyano-1-cyclobutyl-6-methyl-1H-indol-2-yl)-N-(1,3-difluoropropan-2-yl)pyridine-3-sulfonamide], the IC50 is under 500 nM.

As for `CC(C)NS(=O)(=O)c1ccc(-c2c(C#N)c3ccc(C4CC4)cc3n2C2CCC2)cn1` [compound 27, 5-(3-cyano-1-cyclobutyl-6-cyclopropyl-1H-indol-2-yl)-N-(propan-2-yl)pyridine-2-sulfonamide], the IC50 was under 500 nM.

For `COC(=O)c1c(-c2ccc(S(=O)(=O)N[C@@H](C)C(F)(F)F)cn2)n(C2CCCC2)c2cc(C)c(F)cc12` [compound 756, (S)-methyl 1-cyclopentyl-5-fluoro-6-methyl-2-(5-(N-(1,1,1-trifluoropropan-2-yl)sulfamoyl)pyridin-2-yl)-1H-indole-3-carboxylate], the IC50 is under 500 nM.

Regarding `CCc1cc2c(cc1F)c(C(N)=O)c(-c1ccc(S(=O)(=O)N[C@@H](C)C(F)(F)F)cn1)n2-c1ccc(C)cn1` [compound 1039, 6-ethyl-5-fluoro-1-(5-methylpyridin-2-yl)-2-(5-{[(2S)-1,1,1-trifluoropropan-2-yl]sulfamoyl}pyridin-2-yl)-1H-indole-3-carboxamide], the IC50 was 500 to 2000 nM.

Take `CCc1cc2c(cc1F)c(C(N)=O)c(-c1ccc(S(=O)(=O)N[C@@H](C)C(F)(F)F)cn1)n2-c1cccnc1` [compound 1040, 6-ethyl-5-fluoro-1-(pyridin-3-yl)-2-(5-{[(2S)-1,1,1-trifluoropropan-2-yl]sulfamoyl}pyridin-2-yl)-1H-indole-3-carboxamide]: the IC50 is under 500 nM.

Consider `C=CCc1cc2c(cc1F)c(C#N)c(-c1ccc(S(=O)(=O)N[C@@H](C)C(F)(F)F)cn1)n2-c1ncccn1` [compound 967, 6-[3-cyano-5-fluoro-6-(prop-2-en-1-yl)-1-(pyrimidin-2-yl)-1H-indol-2-yl]-N-[(2S)-1,1,1-trifluoropropan-2-yl]pyridine-3-sulfonamide], for which the IC50 is under 500 nM.

For `NC(=O)c1c(-c2ccc(S(=O)(=O)NC(CF)CF)cn2)n(C2CCC2)c2cc(C3CC3)ccc12` [compound 582, 1-cyclobutyl-6-cyclopropyl-2-{5-[(1,3-difluoropropan-2-yl)sulfamoyl]pyridin-2-yl}-1H-indole-3-carboxamide], the IC50 was under 500 nM.

For the compound `[2H]C(C)(C)NS(=O)(=O)c1ccc(-c2c(C#N)c3cc(F)c(C([2H])([2H])[2H])cc3n2CC2CC2)nc1` [compound 1119, 6-[3-cyano-1-(cyclopropylmethyl)-5-fluoro-6-(1,1,1-trideuterium)methyl-1H-indol-2-yl]-N-[(2-deuterium)propan-2-yl]pyridine-3-sulfonamide], the IC50 was under 500 nM.

For the compound `COC(=O)c1c(-c2ccc(NS(=O)(=O)C(C)(C)C)nc2)n(C2CCCCC2)c2cc(OCF)c(F)cc12` [compound 1099, methyl 2-{6-[(tert-butylsulfonyl)amino]pyridin-3-yl}-1-cyclohexyl-5-fluoro-6-(fluoromethoxy)-1H-indole-3-carboxylate], the 50% inhibitory concentration (IC50) fell in the range of 500 to 2000 nM.
